Patent EP0146155A1, “Ether of N-propanolamine derivative” (AKZO N.V., priority 1983, dated 1985)

Legend:
[1] = test system: patients; settings: clinical use; predominantly elderly patients, often hypokalaemic conditions; cited from earlier work
[2] = test system: rat; assay: arrhythmogenic activity under specific hypokalaemic conditions in the rat; assay type: in vivo
[3] = anti-arrhythmic potency; settings: compared with the racemate and the levo-rotatory isomer
[4] = solubility in water; assay type: physicochemical; settings: compared with the racemate
[5] = QTc prolongation in the ECG (electrocardiogram); assay type: in vivo
[6] = test system: calcium; assay: calcium-antagonistic activity (measure for anti-anginal activity); settings: compared with either the racemate or the levo-rotatory isomer

Row | SMILES | rhythm disturbance of the ventricular tachycardia type [1] | arrhythmogenic activity [2] | anti-arrhythmic potency [3] | solubility in water [4] | QTc prolongation [5] | calcium-antagonistic activity [6]
1 | CC(C)COCC(CN(Cc1ccccc1)c1ccccc1)N1CCCC1 (racemic) [racemate, bepridil, reference compound] | in rare cases been attended by a self limiting rhythm disturbance of the so-called ventricular tachycardia type | exacerbates arrhythmias | – | – | – | –
2 | CC(C)COC[C@@H](CN(Cc1ccccc1)c1ccccc1)N1CCCC1 [R-(dextro-rotatory) isomer, R-β-[(2-methylpropoxy)-methyl]-N-phenyl-N-(phenylmethyl)-l-pyrrolidine-ethanamine] | – | do not possess arrhythmogenic activity | not significantly different | much better solubility in water than the racemate | does not produce QTc prolongation | significant increase of calcium-antagonistic activity
